These results are taken from ChEMBL document CHEMBL1137209, “Piperazine derivatives of [1,2,4]triazolo[1,5-a][1,3,5]triazine as potent and selective adenosine A2a receptor antagonists” (J Med Chem, 2004).

Usually Ki stands for the dissociation constant of the complex between target and ligand, obtained from inhibition or displacement. Usually half-life stands for the time in which the quantity being followed falls by half. The term ED50 denotes the dose at which the effect has come halfway, by size or by number of responders. A high value points to weaker potency. Usually bioavailability stands for dose-corrected exposure relative to a reference, in per cent.

The source made the active and inactive calls. The rule behind the calls is not given here.

One data set concerns the target T1, Adenosine receptor A3 (Homo sapiens, UniProt P0DMS8).
T1 sequence (P0DMS8 whole entry): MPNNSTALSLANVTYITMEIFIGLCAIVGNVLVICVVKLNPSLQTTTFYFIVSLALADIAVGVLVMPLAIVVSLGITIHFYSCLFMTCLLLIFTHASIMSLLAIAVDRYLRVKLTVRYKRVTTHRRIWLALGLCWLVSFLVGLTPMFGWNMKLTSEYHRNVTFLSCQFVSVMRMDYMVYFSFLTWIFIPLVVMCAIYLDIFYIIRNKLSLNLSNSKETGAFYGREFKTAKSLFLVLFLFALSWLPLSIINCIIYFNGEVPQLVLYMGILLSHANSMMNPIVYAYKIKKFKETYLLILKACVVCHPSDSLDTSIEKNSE
The data set is described as follows: Selectivity for recombinant human adenosine A3 receptor.

The target of data set [1] is T2, Adenosine receptor A1 (Rattus norvegicus, UniProt P25099).
T2 sequence (P25099 whole entry): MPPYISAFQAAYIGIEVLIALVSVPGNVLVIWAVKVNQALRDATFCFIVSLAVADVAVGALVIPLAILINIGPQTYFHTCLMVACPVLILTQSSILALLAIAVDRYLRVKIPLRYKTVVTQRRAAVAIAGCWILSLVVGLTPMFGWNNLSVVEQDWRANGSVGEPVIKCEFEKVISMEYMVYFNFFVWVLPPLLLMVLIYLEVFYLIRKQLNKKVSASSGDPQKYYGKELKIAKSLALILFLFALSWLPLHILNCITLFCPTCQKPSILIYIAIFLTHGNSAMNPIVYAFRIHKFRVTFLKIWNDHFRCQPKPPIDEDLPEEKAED
Put plainly: Inhibition of [3H]DPCPX binding to rat cerebral cortex adenosine A1 receptor.

In a further data set the target is T3, Adenosine receptor A2b (Homo sapiens, UniProt P29275).
T3 sequence (P29275 whole entry): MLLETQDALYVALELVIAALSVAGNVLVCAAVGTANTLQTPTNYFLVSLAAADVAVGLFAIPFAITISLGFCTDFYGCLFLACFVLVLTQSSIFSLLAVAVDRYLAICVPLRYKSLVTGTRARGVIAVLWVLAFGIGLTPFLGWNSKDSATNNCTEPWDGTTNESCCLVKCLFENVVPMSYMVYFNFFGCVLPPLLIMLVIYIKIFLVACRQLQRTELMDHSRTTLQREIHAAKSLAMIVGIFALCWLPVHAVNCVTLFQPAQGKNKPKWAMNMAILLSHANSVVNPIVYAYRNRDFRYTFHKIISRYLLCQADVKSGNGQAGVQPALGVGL
The data set is described as follows: Selectivity for recombinant human adenosine A2b receptor.

The next data set relates to Mus musculus. Put plainly: Compound was tested in mouse catalepsy study (po); active at 3 mg/kg. In kind it is functional, organism-based. More on the design: dose 3 mg/kg.
A short description of data set [2]: Half-life in rats. In kind it is ADME, organism-based. The note with it: rat, in vivo.
Data set [3] is described as follows: Volume of distribution in rats. In kind it is ADME, organism-based. The note with it: rat, in vivo; read-out: Vdss.
The target in data set [4] is Adenosine receptor A2a (Rattus norvegicus, UniProt P30543).
Adenosine receptor A2a (Rattus norvegicus, UniProt P30543), sequence (P30543 whole entry): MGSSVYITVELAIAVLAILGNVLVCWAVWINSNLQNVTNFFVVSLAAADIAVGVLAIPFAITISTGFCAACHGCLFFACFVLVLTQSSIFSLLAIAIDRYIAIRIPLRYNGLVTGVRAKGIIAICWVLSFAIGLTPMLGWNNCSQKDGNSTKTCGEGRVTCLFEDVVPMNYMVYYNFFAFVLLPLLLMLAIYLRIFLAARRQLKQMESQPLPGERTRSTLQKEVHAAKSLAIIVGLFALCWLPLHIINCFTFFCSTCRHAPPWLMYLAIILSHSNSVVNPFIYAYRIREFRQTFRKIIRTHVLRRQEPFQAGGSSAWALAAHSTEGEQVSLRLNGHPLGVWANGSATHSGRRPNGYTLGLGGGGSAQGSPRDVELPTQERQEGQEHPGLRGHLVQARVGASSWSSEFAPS
The species entered for data set [5] is Rattus norvegicus. Put plainly: Effective peroral dose in rat catalepsy study. In kind it is functional. The note with it: po.
In data set [6] the test system is Rattus norvegicus. The data set is described as follows: Minimum effective dose (po) for 6-hydroxydopamine rotation in male Sprague-Dawley rats. In kind it is functional. The note with it: read-out: MED.
Data set [7] in a line: Oral bioavailability in rat. The settings on record: in vivo. In kind it is ADME, organism-based.
In data set [8] the target is T4, Adenosine receptor A1 (Homo sapiens, UniProt P30542).
T4 sequence (P30542 whole entry): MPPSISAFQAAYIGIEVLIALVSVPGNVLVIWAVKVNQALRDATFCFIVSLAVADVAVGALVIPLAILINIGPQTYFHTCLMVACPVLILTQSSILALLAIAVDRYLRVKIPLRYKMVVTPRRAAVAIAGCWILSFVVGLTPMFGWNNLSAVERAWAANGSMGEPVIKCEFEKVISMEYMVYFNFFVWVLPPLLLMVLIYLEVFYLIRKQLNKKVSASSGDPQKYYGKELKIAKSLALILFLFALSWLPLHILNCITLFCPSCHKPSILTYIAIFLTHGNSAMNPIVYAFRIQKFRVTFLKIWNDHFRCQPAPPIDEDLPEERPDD
The data set is described as follows: Selectivity for recombinant human adenosine A1 receptor.

In data set [9] the target is Adenosine receptor A2a (Homo sapiens, UniProt P29274). The data set is described as follows: Selectivity for recombinant human adenosine A2a receptor.
Adenosine receptor A2a (Homo sapiens, UniProt P29274), sequence (P29274 whole entry): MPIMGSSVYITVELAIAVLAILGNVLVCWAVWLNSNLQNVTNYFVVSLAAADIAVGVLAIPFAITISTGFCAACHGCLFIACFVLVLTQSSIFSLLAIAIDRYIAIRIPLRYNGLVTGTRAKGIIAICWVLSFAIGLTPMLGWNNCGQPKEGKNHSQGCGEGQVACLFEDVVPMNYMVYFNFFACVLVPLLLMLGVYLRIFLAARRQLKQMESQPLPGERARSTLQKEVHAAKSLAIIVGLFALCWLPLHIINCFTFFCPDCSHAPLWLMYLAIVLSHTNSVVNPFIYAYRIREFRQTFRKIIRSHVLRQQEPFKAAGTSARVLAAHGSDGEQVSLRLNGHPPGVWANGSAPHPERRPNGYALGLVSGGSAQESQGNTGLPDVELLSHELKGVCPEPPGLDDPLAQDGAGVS

For `Cn1nc(C(F)(F)F)c(CN2CCN(c3nc(N)n4nc(-c5ccco5)nc4n3)CC2)c1Cl`, the Ki on Adenosine receptor A3 was above 10 µM; on Adenosine receptor A1 [1], 1.1 µM; on Adenosine receptor A2b it was 28 µM; at Adenosine receptor A2a [4], 0.014 µM; on Adenosine receptor A1 [8] it was 10 µM; on Adenosine receptor A2a [9], 0.1 µM. Also, the outcome in the data set on Mus musculus was Active. Besides, the half-life in [2] is 30 min. The Vd in data set [3] amounted to 1.8 L/kg. In the data set filed under Rattus norvegicus [5], this molecule gave an ED50 of 3 mg/kg. The minimal effective dose with Rattus norvegicus [6] was determined as 3 mg/kg. In data set [7], this molecule yielded a bioavailability of 7%.
